What follows are compounds tested against GST-Bcl-2 (Homo sapiens (Human), UniProt P10415) (assay: Time Resolved-Fluorescence Resonance Energy Transfer (TR-FRET) Bcl-2 binding assay). Details: GST-Bcl-2 1 nM, F-Bak peptide probe 100 nM, Tb-anti-GST antibody 1 nM; Ki by Wang's equation.
In short: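 Ki values derived from TR-FRET displacement of F-Bak peptide from GST-Bcl-2, detected with Tb-labelled anti-GST antibody (ex 340, em 520/495 nm). Compound dilution series started at 50 μM (2× starting concentration); room-temperature incubation 3 hours.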

GST-Bcl-2, sequence (P10415 whole entry): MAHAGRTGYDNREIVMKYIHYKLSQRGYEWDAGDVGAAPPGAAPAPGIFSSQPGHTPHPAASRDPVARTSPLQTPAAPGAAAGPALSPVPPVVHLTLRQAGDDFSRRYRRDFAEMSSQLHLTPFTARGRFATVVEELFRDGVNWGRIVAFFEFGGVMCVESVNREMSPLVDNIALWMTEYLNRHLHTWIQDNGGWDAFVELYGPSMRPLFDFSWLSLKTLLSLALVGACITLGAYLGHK

First: CC1(C)CCC(CN2CCN(c3ccc(C(=O)NS(=O)(=O)c4cnc(OCC5CCOCC5)c(Cl)c4)c(Oc4cc5cc[nH]c5cc4F)c3)CC2)=C(c2ccc(Cl)cc2)C1 [Example 303, 4-(4-{[2-(4-chlorophenyl)-4,4-dimethylcyclohex-1-en-1-yl]methyl}piperazin-1-yl)-N-{[5-chloro-6-(tetrahydro-2H-pyran-4-ylmethoxy)pyridin-3-yl]sulfonyl}-2-[(6-fluoro-1H-indol-5-yl)oxy]benzamide]
Second: CC1(C)CCC(CN2CCN(c3ccc(C(=O)NS(=O)(=O)c4cnc(OCC5(F)CCOCC5)c(Cl)c4)c(Oc4cc5cc[nH]c5cc4F)c3)CC2)=C(c2ccc(Cl)cc2)C1 [Example 326, N-({5-chloro-6-[(4-fluorotetrahydro-2H-pyran-4-yl)methoxy]pyridin-3-yl}sulfonyl)-4-(4-{[2-(4-chlorophenyl)-4,4-dimethylcyclohex-1-en-1-yl]methyl}piperazin-1-yl)-2-[(6-fluoro-1H-indol-5-yl)oxy]benzamide]
The Ki of the first is 2.5-fold higher: 0.092 nM for the first, 0.037 nM for the second.

`CC1(C)CCC(CN2CCN(c3ccc(C(=O)NS(=O)(=O)c4ccc(NCC5CCC(O)CC5)c([N+](=O)[O-])c4)c(Oc4cnc(N)c(Cl)c4)c3)CC2)=C(c2ccc(Cl)cc2)C1` (centres unmarked) [Example 386, 2-[(6-amino-5-chloropyridin-3-yl)oxy]-4-(4-{[2-(4-chlorophenyl)-4,4-dimethylcyclohex-1-en-1-yl]methyl}piperazin-1-yl)-N-[(4-{[(4-hydroxycyclohexyl)methyl]amino}-3-nitrophenyl)sulfonyl]benzamide] and `CC1(C)CCC(CN2CCN(c3ccc(C(=O)NS(=O)(=O)c4ccc(OCC5(F)CCOCC5)c([N+](=O)[O-])c4)c(Oc4cnc(N)c(Cl)c4)c3)CC2)=C(c2ccc(Cl)cc2)C1` [Example 330, 2-[(6-amino-5-chloropyridin-3-yl)oxy]-4-(4-{[2-(4-chlorophenyl)-4,4-dimethylcyclohex-1-en-1-yl]methyl}piperazin-1-yl)-N-({4-[(4-fluorotetrahydro-2H-pyran-4-yl)methoxy]-3-nitrophenyl}sulfonyl)benzamide] cannot be ordered by Ki: less than 0.01 nM for the first, less than 0.01 nM for the second.

`CN(C)C(=O)COc1ccc(Oc2cc(N3CCN(Cc4ccccc4-c4ccc(Cl)cc4)CC3)ccc2C(=O)NS(=O)(=O)c2ccc(NCC3CCOCC3)c([N+](=O)[O-])c2)cc1` [Example 101, 4-(4-((4′-chloro-1,1′-biphenyl-2-yl)methyl)piperazin-1-yl)-2-(4-(2-(dimethylamino)-2-oxoethoxy)phenoxy)-N-((3-nitro-4-((tetrahydro-2H-pyran-4-ylmethyl)amino)phenyl)sulfonyl)benzamide] and `O=C(NS(=O)(=O)c1ccc(NCC2CCOCC2)c([N+](=O)[O-])c1)c1ccc(N2CCN(Cc3ccccc3-c3ccc(Cl)cc3)CC2)cc1Oc1ccc(OCCN2CCOCC2)cc1` [Example 94, 4-(4-((4′-chloro-1,1′-biphenyl-2-yl)methyl)piperazin-1-yl)-2-(4-(2-morpholin-4-ylethoxy)phenoxy)-N-((3-nitro-4-((tetrahydro-2H-pyran-4-ylmethyl)amino)phenyl)sulfonyl)benzamide] are within 1.5-fold of each other in Ki: 670 nM for the first, 561 nM for the second.

Going from `CC1(C)CCC(CN2CCN(c3ccc(C(=O)NS(=O)(=O)c4ccc(NC5CCOCC5)c([N+](=O)[O-])c4)c(Oc4cc5cc[nH]c5cc4F)c3)CC2)=C(c2ccc(Cl)cc2)C1` [Example 251, 4-(4-{[2-(4-chlorophenyl)-4,4-dimethylcyclohex-1-en-1-yl]methyl}piperazin-1-yl)-2-[(6-fluoro-1H-indol-5-yl)oxy]-N-{[3-nitro-4-(tetrahydro-2H-pyran-4-ylamino)phenyl]sulfonyl}benzamide] to `CC1(C)CCC(CN2CCN(c3ccc(C(=O)NS(=O)(=O)c4ccc(NCC5CCOCC5)c([N+](=O)[O-])c4)c(Oc4cc5cc[nH]c5cc4Cl)c3)CC2)=C(c2ccc(Cl)cc2)C1` [Example 276, 2-[(6-chloro-1H-indol-5-yl)oxy]-4-(4-{[2-(4-chlorophenyl)-4,4-dimethylcyclohex-1-en-1-yl]methyl}piperazin-1-yl)-N-({3-nitro-4-[(tetrahydro-2H-pyran-4-ylmethyl)amino]phenyl}sulfonyl)benzamide], the Ki falls from 0.435 nM to 0.199 nM (2.2-fold).

Compared with `CC(C)(C)OC(=O)N1CCN(c2cccc(Oc3cc(N4CCN(Cc5ccccc5-c5ccc(Cl)cc5)CC4)ccc3C(=O)NS(=O)(=O)c3ccc(NCC4CCOCC4)c([N+](=O)[O-])c3)c2)CC1` [Example 91, tert-butyl 4-(3-(5-(4-((4′-chloro-1,1′-biphenyl-2-yl)methyl)piperazin-1-yl)-2-((((3-nitro-4-((tetrahydro-2H-pyran-4-ylmethyl)amino)phenyl)sulfonyl)amino)carbonyl)phenoxy)phenyl)piperazine-1-carboxylate], `CC1(C)CCC(CN2CCN(c3ccc(C(=O)NS(=O)(=O)c4ccc(NCC5CCOCC5)c([N+](=O)[O-])c4)c(Oc4cc(NC(=O)OC(C)(C)C)ncc4Br)c3)CC2)=C(c2ccc(Cl)cc2)C1` [Example 383, tert-butyl 5-bromo-4-(5-(4-{[2-(4-chlorophenyl)-4,4-dimethylcyclohex-1-en-1-yl]methyl}piperazin-1-yl)-2-{[({3-nitro-4-[(tetrahydro-2H-pyran-4-ylmethyl)amino]phenyl}sulfonyl)amino]carbonyl}phenoxy)pyridin-2-ylcarbamate] is lower in Ki: greater than 1200 nM for the first, 427 nM for the second. The second binds more tightly here.

Compared with `CN1CCC(Nc2ccc(S(=O)(=O)NC(=O)c3ccc(N4CCN(CC5=C(c6ccc(Cl)cc6)CC(C)(C)CC5)CC4)cc3Oc3cccc(C(F)(F)F)c3)cc2[N+](=O)[O-])CC1` [Example 57, 4-(4-((2-(4-chlorophenyl)-4,4-dimethylcyclohex-1-en-1-yl)methyl)piperazin-1-yl)-N-((4-((1-methylpiperidin-4-yl)amino)-3-nitrophenyl)sulfonyl)-2-(3-(trifluoromethyl)phenoxy)benzamide], `CN1CC[C@H](Nc2ccc(S(=O)(=O)NC(=O)c3ccc(N4CCN(CC5=C(c6ccc(Cl)cc6)CC(C)(C)CC5)CC4)cc3Oc3cccc(Cl)c3)cc2[N+](=O)[O-])C1` [Example 194, 2-(3-chlorophenoxy)-4-(4-{[2-(4-chlorophenyl)-4,4-dimethylcyclohex-1-en-1-yl]methyl}piperazin-1-yl)-N-[(4-{[(3S)-1-methylpyrrolidin-3-yl]amino}-3-nitrophenyl)sulfonyl]benzamide] is 2.2-fold higher in Ki: 0.147 nM for the first, 0.317 nM for the second.

Compared with `CC1(C)CCC(CN2CCN(c3ccc(C(=O)NS(=O)(=O)c4ccc(NC5CCN(C6CCOCC6)CC5)c([N+](=O)[O-])c4)c(Oc4cccc(Cl)c4)c3)CC2)=C(c2ccc(Cl)cc2)C1` [Example 127, 2-(3-chlorophenoxy)-4-(4-{[2-(4-chlorophenyl)-4,4-dimethylcyclohex-1-en-1-yl]methyl}piperazin-1-yl)-N-({3-nitro-4-[(1-tetrahydro-2H-pyran-4-ylpiperidin-4-yl)amino]phenyl}sulfonyl)benzamide], `CCN1CCC(Nc2ccc(S(=O)(=O)NC(=O)c3ccc(N4CCN(CC5=C(c6ccc(Cl)cc6)CC(C)(C)CC5)CC4)cc3Oc3ccccc3Cl)cc2[N+](=O)[O-])CC1` [Example 47, 2-(2-chlorophenoxy)-4-(4-((2-(4-chlorophenyl)-4,4-dimethylcyclohex-1-en-1-yl)methyl)piperazin-1-yl)-N-((4-((1-ethylpiperidin-4-yl)amino)-3-nitrophenyl)sulfonyl)benzamide] is 1.7-fold higher in Ki: 0.03 nM for the first, 0.05 nM for the second. The first binds more tightly here.

From patent US8952157B2, “Apoptosis-inducing agents for the treatment of cancer and immune and autoimmune diseases” (AbbVie Inc., priority 2008, dated 2015)
